From patent US10766926B2, “Composition for autophagy inhibiting in cell, and pharmaceutical composition for preventing or treating tumor disease, or inhibiting anti-cancer agents resistance containing the same” (L-BASE CO., LTD, priority 2018, dated 2020)

Columns and labels:
[1] = system: PC9 cell line and PC9-ER cell line; test: MTT assay, resistance of PC9 and PC9-ER cell lines to anticancer agents; assay type: cell-based; settings: anticancer agent 1/10-fold serial dilution, 24 hours, FIGS. 3A and 3B
Procedure: The cancer cell line (PC9) used in the present invention was cultured in a minimum essential medium in a conditioned incubator (37° C.) supplemented with 10% fetal bovine serum and antibiotics. The cancer cell line (PC9-ER) was constructed to have resistance by exposing to erlotinib as an anticancer agent for a long period of time.
Additionally, the MTT assay was performed so as to confirm the resistance of the PC9 cell line and the PC9-ER cell line to anticancer agents.
Specifically, an equal number of the PC9 cell line and the PC9-ER cell line were cultured in a 96-well cell culture plate, treated with an anticancer agent subjected to a 1/10-fold serial dilution for 24 hours, and confirmed using MTT. As an experiment to utilize the principle that NADH present in the mitochondria of a living cell reacts with MTT to form formazan, formazan was dissolved in DMSO and its absorbance was measured at 570 nm and thereby the growth activity of the cells was confirmed.

H1975 cell line = test: MTT assay, resistance of H1975 cell line to osimertinib after polypeptide treatment; assay type: cell-based; settings: for anticancer activity through the inhibition of autophagy: conclusion of Example 5
Procedure: Additionally, after the treatment with the polypeptide 1, polypeptide 2, and polypeptide 3, respectively, the MTT assay was performed so as to confirm the resistance to osimertinib (Tagrisso), an anticancer agent.
Specifically, an equal number of cells of the H1975 cell line were plated into a 96-well cell culture plate and treated with the polypeptides (1 to 3) for 24 hours. Then, the cells were treated with osimertinib (Tagrisso), an anticancer agent, which was subjected to a 1/10-fold serial dilution, for 24 hours and were confirmed using MTT. As an experiment to utilize the principle that NADH present in the mitochondria of a living cell reacts with MTT to form formazan, formazan was dissolved in DMSO and its absorbance was measured at 570 nm and thereby the growth activity of the cells was confirmed.

PC9-ER cell line [2] = test: MTT assay, resistance of PC9-ER cell line to anticancer agent after polypeptide treatment; assay type: cell-based; settings: conclusion of Example 2
Procedure: Additionally, the PC9-ER cell line was treated with the polypeptide 1, polypeptide 2, and GNTITIKT (polypeptide 3), respectively, and the MTT assay was performed so as to confirm the resistance of the PC9-ER cell line to anticancer agents.
Specifically, the PC9-ER cell line was plated on a 96-well cell culture plate and treated with each of the polypeptides (1 to 3) for 24 hours. Then, the cells were treated for with an anticancer agent subjected to a 1/10-fold serial dilution for 24 hours and confirmed using MTT. As an experiment to utilize the principle that NADH present in the mitochondria of a living cell reacts with MTT to form formazan, formazan was dissolved in DMSO and its absorbance was measured at 570 nm and thereby the growth activity of the cells was confirmed.

MCF7^R cell line [3] = test: LC3 immunofluorescence staining in MCF7^R cell line; assay type: cell-based; settings: 24 hours treatment, confocal microscopy, FIG. 13
Procedure: Additionally, after the treatment with the polypeptide 2 in the MCF7^R cell line, the immunofluorescence staining was performed.
(§1) Specifically, after treating the polypeptide 2 on the MCF7^R cell line for 24 hours, the cells were fixed at room temperature using 4% formaldehyde. Then, the cells were reacted at room temperature for 30 minutes so as to prevent inaccurate binding to antibodies using PBS containing 0.1% BSA, and allowed to react with LC3 antibodies (cell signaling) at 4° C. for 24 hours. After removing the antibodies, the cells were washed with PBS and allowed to react with secondary antibodies (Thermo Fisher) labeled with Alexa 488 fluorescence at room temperature for 1.5 hours. After the reaction, the cells from which antibodies were removed were washed with PBS and stained with DAPI (Thermo Fisher) for 1 minute.

PC9-ER cell line [4] = test: western blot of autophagy mechanism proteins in PC9-ER cell line treated with polypeptide; assay type: cell-based; settings: FIG. 4
Procedure: An attempt was made to confirm the inhibitory effects of SPTPKT (polypeptide 1) and QTATAKA (polypeptide 2) against autophagy, based on the results that the expression of ATG5 and ATG5-ATG12 proteins which are known to be involved in autophagy in the cancer cell line (PC9-ER).
Specifically, the PC9-ER cell line was treated with each of the polypeptide 1 and the polypeptide 2 and the expression levels of Beclin1, p-Belclin1, ATG5-ATG12, LC3 I, and LC3 II (i.e., proteins associated with autophagy mechanism) were compared by western blot method, and the results are shown in FIG. 4.

PC9-ER cell line [5] = test: LC3 immunofluorescence staining in PC9-ER cell line; assay type: cell-based; settings: 24 hours after treatment, confocal microscopy, FIG. 5
Procedure: Additionally, the cells were subjected to immunofluorescence staining after treating the PC9-ER cell line with the polypeptide 2.
as §1, with “Specifically, 24 hours” for “Specifically,”, “PC9-ER” for “polypeptide 2 on the MCF7^R”, “with the polypeptide 2,” for “for 24 hours,”

PC9-ER cell line [6] = test: inhibitory effect against tumor formation, PC9-ER tumor in nude mice; assay type: in vivo, athymic nude mice (BALB/C nude); settings: PC9-ER tumor in nude mice, 0, 50, 100, 200 μg/mouse, 5 injections through caudal vein, measured on day 41; FIGS. 8A-8C
Procedure: (§2) Specifically, athymic nude mice (BALB/C nude, 5 to 6-week old females) were subcutaneously injected on the side with the PC9-ER cell line (2×10^6 cells/mouse) to induce tumor. When the tumor volume reached about 150 mm^3, the polypeptide 2 was injected a total of 5 times through the caudal vein and the changes in the tumor size were examined. The tumor volume was directly measured using a caliper and calculated by the following equation (length×width×height×0.5). In order to confirm the inhibitory effect of the polypeptide 2 against tumor formation, the peptide (at concentrations of 0 μg/mouse, 50 μg/mouse, 100 μg/mouse, and 200 μg/mouse) was injected 5 times through the caudal vein from day 25 at 3 day intervals. On the 41st day, the tumors were separated and the sizes of the tumor volumes were measured, and western blot was performed using each labeled antibody.

H1975 cells = test: western blot of autophagy controlling proteins in H1975 cells; assay type: cell-based; settings: FIG. 10
PC9-ER cell line [7] = test: western blot of tumor tissue from PC9-ER tumor-bearing nude mice; assay type: in vivo, athymic nude mice (BALB/C nude); settings: 50-200 μg/mouse, FIG. 9
Procedure: as §2

MCF7^R cell line [8] = test: western blot of autophagy controlling proteins in MCF7^R cell line; assay type: cell-based; settings: FIG. 12
Procedure: MCF7^R cancer cell line having resistance to anticancer agents was constructed to have resistance by exposing to celastrol for a long period of time
To examine the effects of the polypeptide 1 and the polypeptide 2 on the proteins of autophagy controlling mechanism, western blot was performed using each labeled antibody in the MCF7^R cell line.

| Compound | resistance of PC9-ER cell line to the anticancer agent compared to PC9 cell line [1] | anticancer activity through the inhibition of autophagy (H1975 cell line) | inhibitory effect against autophagy in the cancer cell line having resistance to anticancer agents (PC9-ER cell line [2]) | expression levels of Beclin1, p-Beclin1, ATG5-ATG12, LC3 I and LC3 II proteins (PC9-ER cell line [4]) | expression of p-AMPK, p-Beclin1, ATG5, ATG5-ATG12, LC3 I and LC3 II (H1975 cells) | expression level of p62 protein (MCF7^R cell line [8]) | expression levels of p-Beclin1, ATG5, ATG5-ATG12, LC3 I and LC3 II proteins (MCF7^R cell line [8]) | also measured |
| --- | --- | --- | --- | --- | --- | --- | --- | --- |
| CC(=O)O[C@@]12CO[C@@H]1C[C@H](O)[C@@]1(C)C(=O)[C@H](O)C3=C(C)[C@@H](OC(=O)[C@H](O)[C@@H](NC(=O)OC(C)(C)C)c4ccccc4)C[C@@](O)([C@@H](OC(=O)c4ccccc4)[C@H]21)C3(C)C [docetaxel] | higher resistance | – | – | – | – | – | – | – |
| CC(=O)O[C@H]1C(=O)[C@@]2(C)[C@H]([C@H](OC(=O)c3ccccc3)[C@]3(O)C[C@H](OC(=O)[C@H](O)[C@@H](NC(=O)c4ccccc4)c4ccccc4)C(C)=C1C3(C)C)[C@]1(OC(C)=O)CO[C@@H]1C[C@@H]2O [taxol] | higher resistance | – | – | – | – | – | – | – |
| GNTITIKT [polypeptide 3] | – | anticancer activity | inhibitory effect against autophagy | – | – | – | – | – |
| QTATAKA [polypeptide 2] | – | anticancer activity | inhibitory effect against autophagy | lowered | lowered | increased | reduced | expression level of LC3 puncta (MCF7^R cell line [3]): lowered; resistance to osimertinib (Tagrisso), polypeptide at different concentrations (H1975 cell line; MTT): reduced in a concentration-dependent manner; expression level of LC3 puncta (PC9-ER cell line [5]): lowered; size of tumors (tumor volume) (PC9-ER cell line [6]): significantly reduced; expression of p-AMPK, Beclin1 and p-Beclin1 proteins in tumor tissue (PC9-ER cell line [7]): decreased in a concentration-dependent manner; expression of p-mTOR and p62 proteins in tumor tissue (PC9-ER cell line [7]): increased in a concentration-dependent manner |
| SPTPKT [polypeptide 1] | – | anticancer activity | inhibitory effect against autophagy | lowered | lowered | increased | reduced | – |
